Patent US20250255304A1, “HIGHLY TRA[…] CONTROLLING COMPOSITION” (ZM Crop Protection Corporation, priority 2022, published 2025)

Tests used:
Assay type in all cases: in vivo
[1] = system: Coptotermes formosanus Shiraki; experiment: Test Example 3: extirpation test with dust formulation using simulated termite trails; details: active ingredient concentration 50%
[2] = system: Coptotermes formosanus Shiraki; experiment: Test Example 2: secondary transmission treatment effect
Experimental: (§1) A test agent solution containing 0.023 parts of dicloromezotiaz was prepared by adding 99.875 parts of water to 0.125 parts of the aqueous suspension composition shown in Formulation Example 1. As comparative examples, four types of commercially available neonicotinoid termite controlling agents and four types of slow-acting termite controlling agents shown in Table 2 were diluted with water at practical concentrations to prepare test agent solutions. The “agent concentration (%)” indicates the concentration of the active ingredient contained in each of the composition of the present invention and the termite controlling agents and the “test agent solution concentration (%)” indicates the concentration of the active ingredient in each of the prepared test agent solutions.
(§2) After 1.2 g of each of the test agent solutions of the example and the comparative examples diluted to a predetermined concentration and prepared was added to 4.8 g of soil, 6 g of the mixed soil was spread in a glass petri dish having a diameter of 50 mm and ten workers of Coptotermes formosanus Shiraki were released into the petri dish and exposed to the agent solution for 4 hours.

[3] = system: Coptotermes formosanus Shiraki; experiment: Test Example 2: primary transmission treatment effect
Experimental: as §1, §2

[4] = after 1 day, Table 6, dicloromezotiaz 0.023%, chlorfenapyr 0.11%, clothianidin 0.05%, dinotefuran 0.20%, thiamethoxam 0.10%, broflanilide 0.03% solution in soil
[5] = after 3 days, Table 6, dicloromezotiaz 0.023%, chlorfenapyr 0.11%, clothianidin 0.05%, dinotefuran 0.20%, thiamethoxam 0.10%, broflanilide 0.03% solution in soil
[6] = after 7 days, Table 6, dicloromezotiaz 0.023%, chlorfenapyr 0.11%, clothianidin 0.05%, dinotefuran 0.20%, thiamethoxam 0.10%, broflanilide 0.03% solution in soil
[7] = after 14 days, Table 6, dicloromezotiaz 0.023%, chlorfenapyr 0.11%, clothianidin 0.05%, dinotefuran 0.20%, thiamethoxam 0.10%, broflanilide 0.03% solution in soil
[8] = after 21 days, Table 6, dicloromezotiaz 0.023%, chlorfenapyr 0.11%, clothianidin 0.05%, dinotefuran 0.20%, thiamethoxam 0.10%, broflanilide 0.03% solution in soil
[9] = after 1 day, Table 4, dicloromezotiaz 0.023%, chlorfenapyr 0.11%, clothianidin 0.05%, dinotefuran 0.20%, thiamethoxam 0.10%, broflanilide 0.03% solution in soil
[10] = after 3 days, Table 4, dicloromezotiaz 0.023%, chlorfenapyr 0.11%, clothianidin 0.05%, dinotefuran 0.20%, thiamethoxam 0.10%, broflanilide 0.03% solution in soil
[11] = after 7 days, Table 4, dicloromezotiaz 0.023%, chlorfenapyr 0.11%, clothianidin 0.05%, dinotefuran 0.20%, thiamethoxam 0.10%, broflanilide 0.03% solution in soil
[12] = after 14 days, Table 4, dicloromezotiaz 0.023%, chlorfenapyr 0.11%, clothianidin 0.05%, dinotefuran 0.20%, thiamethoxam 0.10%, broflanilide 0.03% solution in soil
[13] = after 21 days, Table 4, dicloromezotiaz 0.023%, chlorfenapyr 0.11%, clothianidin 0.05%, dinotefuran 0.20%, thiamethoxam 0.10%, broflanilide 0.03% solution in soil

Row | Structure (SMILES) | Abnormal or dead termite rate (%) [2, 4] | Abnormal or dead termite rate (%) [2, 5] | Abnormal or dead termite rate (%) [2, 6] | Abnormal or dead termite rate (%) [2, 7] | Abnormal or dead termite rate (%) [2, 8] | Abnormal or dead termite rate (%) [3, 9] | Abnormal or dead termite rate (%) [3, 10] | Abnormal or dead termite rate (%) [3, 11] | Abnormal or dead termite rate (%) [3, 12] | Abnormal or dead termite rate (%) [3, 13] | further results
1 | N#Cc1ccc(CC(=NNC(=O)Nc2ccc(OC(F)(F)F)cc2)c2cccc(C(F)(F)F)c2)cc1 (mixture of isomers) [Metaflumizone, metaflumizone] |  |  |  |  |  |  |  |  |  |  | Abnormal or dead termite rate (%) ([1]; 1 h): 0%; Abnormal or dead termite rate (%) ([1]; 2 h): 0%; Abnormal or dead termite rate (%) ([1]; 3 h): 0%; Abnormal or dead termite rate (%) ([1]; 4 h): 0%; Abnormal or dead termite rate (%) ([1]; 5 h): 0%; Abnormal or dead termite rate (%) ([1]; 6 h): 0%; Abnormal or dead termite rate (%) ([1]; 7 h): 0%; Abnormal or dead termite rate (%) ([1]; 1 day): 100%; Abnormal or dead termite rate (%) ([1]; 2 days): 100%; Abnormal or dead termite rate (%) ([1]; 3 days): 100%; Abnormal or dead termite rate (%) ([1]; 7 days): 100%
2 | CN(C(=O)c1ccccc1)c1cccc(C(=O)Nc2c(Br)cc(C(F)(C(F)(F)F)C(F)(F)F)cc2C(F)(F)F)c1F [Broflanilide] | 2.2% | 0% | 3.3% | 5.6% | 6.7% | 100% | 73% | 48% | 53% | 56% | 
3 | CNC(=O)c1cc(Cl)cc(C)c1NC(=O)c1cc(Br)nn1-c1ncccc1Cl [Chlorantraniliprole] |  |  |  |  |  |  |  |  |  |  | Abnormal or dead termite rate (%) ([2]; after 1 day, Table 5, dicloromezotiaz 0.023%, fipronil 0.03%, imidacloprid 0.10%, chlorantraniliprole 0.05% solution in soil): 10%; Abnormal or dead termite rate (%) ([2]; after 3 days, Table 5, dicloromezotiaz 0.023%, fipronil 0.03%, imidacloprid 0.10%, chlorantraniliprole 0.05% solution in soil): 2.2%; Abnormal or dead termite rate (%) ([2]; after 7 days, Table 5, dicloromezotiaz 0.023%, fipronil 0.03%, imidacloprid 0.10%, chlorantraniliprole 0.05% solution in soil): 1.1%; Abnormal or dead termite rate (%) ([2]; after 14 days, Table 5, dicloromezotiaz 0.023%, fipronil 0.03%, imidacloprid 0.10%, chlorantraniliprole 0.05% solution in soil): 2.2%; Abnormal or dead termite rate (%) ([2]; after 21 days, Table 5, dicloromezotiaz 0.023%, fipronil 0.03%, imidacloprid 0.10%, chlorantraniliprole 0.05% solution in soil): 7.8%; Abnormal or dead termite rate (%) ([3]; after 1 day, Table 3, dicloromezotiaz 0.023%, fipronil 0.03%, imidacloprid 0.10%, chlorantraniliprole 0.05% solution in soil): 98%; Abnormal or dead termite rate (%) ([3]; after 3 days, Table 3, dicloromezotiaz 0.023%, fipronil 0.03%, imidacloprid 0.10%, chlorantraniliprole 0.05% solution in soil): 100%; Abnormal or dead termite rate (%) ([3]; after 7 days, Table 3, dicloromezotiaz 0.023%, fipronil 0.03%, imidacloprid 0.10%, chlorantraniliprole 0.05% solution in soil): 85%; Abnormal or dead termite rate (%) ([3]; after 14 days, Table 3, dicloromezotiaz 0.023%, fipronil 0.03%, imidacloprid 0.10%, chlorantraniliprole 0.05% solution in soil): 80%; Abnormal or dead termite rate (%) ([3]; after 21 days, Table 3, dicloromezotiaz 0.023%, fipronil 0.03%, imidacloprid 0.10%, chlorantraniliprole 0.05% solution in soil): 85%
4 | CCOCn1c(-c2ccc(Cl)cc2)c(C#N)c(Br)c1C(F)(F)F [Chlorfenapyr] | 0% | 0% | 3.3% | 7.8% | 31% | 89% | 80% | 89% | 100% | 100% | 
5 | CN/C(=N\[N+](=O)[O-])NCc1cnc(Cl)s1 [Clothianidin] | 0% | 0% | 3.3% | 3.3% | 4.4% | 94% | 89% | 75% | 91% | 94% | 
6 | CN/C(=N/CC1CCOC1)N[N+](=O)[O-] (centres unmarked) [Dinotefuran] | 24% | 18% | 16% | 18% | 22% | 93% | 94% | 96% | 98% | 99% | 
7 | CN1COCN(Cc2cnc(Cl)s2)/C1=N\[N+](=O)[O-] [Thiamethoxam] | 0% | 0% | 3.3% | 3.3% | 4.4% | 98% | 91% | 98% | 95% | 96% | 
